Data on 2 molecules can be found in patent US20180147134A1, “ANTI-CELL SENESCENCE COSMETIC COMPOSITION, USE OF CASEARIA SYLVESTRIS AND/OR HIMENAEA COURBARIL, METHOD OF PREVENTING CELL SENESCENCE AND A METHOD FOR MODULATING THE EXPRESSION OF B-GALACTOSIDASE, P16, P21 AND/OR IL-8” (Natura Cosméticos S.A., priority 2016, published 2018).

What all share (format): cell-based
Assay [1] relates to inflammatory cytokine IL-8. Description: in vitro model of induced cell senescence: expression of IL-8. As to conditions: UVA + agent.
From the text: (§1) An in vitro model of induced early cell aging (cell senescence) was developed and used to evaluate whether certain cosmetic ingredients can protect or delay molecular mechanisms that lead to aging of skin cells or to loss of functional competence (loss of cellular vitality).
The test system of assay [2] is transcription factor p16. The experiment in a line: in vitro model of induced cell senescence: expression of p16. The following applies: protection of the cells with agent.
From the text: as §1
For assay [3], the system named is cell senescence-associated lysosomal b-galactosidase. The experiment in a line: in vitro model of induced early cell aging (cell senescence), UVA/UVB: senescence-associated lysosomal b-galactosidase (flow cytometry and cytochemical marking). As to conditions: in the presence of agent. In general terms: Flow cytometry measures light scatter and fluorescence of single cells or particles in a stream.
From the text: as §1

The test system of assay [4] is transcription factor p21. The experiment in a line: in vitro model of induced cell senescence: expression of p21. As to conditions: protection of the cells with agent.
From the text: as §1

On to `O=C(O)/C=C/c1ccc(O)c(O)c1` [caffeic acid], for which the “expression of IL-8” value in assay [1] is “reduced”. Besides, in assay [2], the “induced expression of p16” value is on record as “reduces”. Besides, in assay [3], the “appearance of b-galactosidase marking induced by UV” value is on record as “reduced”.
`Cc1c(C)c2c(c(C)c1O)CCC(C)(C(=O)O)O2` (stereo not shown) [trolox]: the “expression of IL-8” value in assay [1] is reported as “reduced”. Further, in assay [2], the “induced expression of p16” value is reported as “reduces”. In addition, the “induced expression of p21” value in assay [4] is listed as “reduces”. In addition, the “appearance of b-galactosidase marking induced by UV” value in assay [3] is on record as “reduced”.
